Here are results for three compounds from BindingDB's records for doi:10.1016/0024-3205(82)90293-4 (University of Arizona, 1982).

Each structure is given as a SMILES string. Where “and” joins values, the source holds several entries; their conditions need not be identical. Equal entries are not always repeated.

This test deals with Voltage-dependent L-type calcium channel subunit alpha-1C (Rattus norvegicus, UniProt P22002).
Voltage-dependent L-type calcium channel subunit alpha-1C, sequence (P22002 whole entry): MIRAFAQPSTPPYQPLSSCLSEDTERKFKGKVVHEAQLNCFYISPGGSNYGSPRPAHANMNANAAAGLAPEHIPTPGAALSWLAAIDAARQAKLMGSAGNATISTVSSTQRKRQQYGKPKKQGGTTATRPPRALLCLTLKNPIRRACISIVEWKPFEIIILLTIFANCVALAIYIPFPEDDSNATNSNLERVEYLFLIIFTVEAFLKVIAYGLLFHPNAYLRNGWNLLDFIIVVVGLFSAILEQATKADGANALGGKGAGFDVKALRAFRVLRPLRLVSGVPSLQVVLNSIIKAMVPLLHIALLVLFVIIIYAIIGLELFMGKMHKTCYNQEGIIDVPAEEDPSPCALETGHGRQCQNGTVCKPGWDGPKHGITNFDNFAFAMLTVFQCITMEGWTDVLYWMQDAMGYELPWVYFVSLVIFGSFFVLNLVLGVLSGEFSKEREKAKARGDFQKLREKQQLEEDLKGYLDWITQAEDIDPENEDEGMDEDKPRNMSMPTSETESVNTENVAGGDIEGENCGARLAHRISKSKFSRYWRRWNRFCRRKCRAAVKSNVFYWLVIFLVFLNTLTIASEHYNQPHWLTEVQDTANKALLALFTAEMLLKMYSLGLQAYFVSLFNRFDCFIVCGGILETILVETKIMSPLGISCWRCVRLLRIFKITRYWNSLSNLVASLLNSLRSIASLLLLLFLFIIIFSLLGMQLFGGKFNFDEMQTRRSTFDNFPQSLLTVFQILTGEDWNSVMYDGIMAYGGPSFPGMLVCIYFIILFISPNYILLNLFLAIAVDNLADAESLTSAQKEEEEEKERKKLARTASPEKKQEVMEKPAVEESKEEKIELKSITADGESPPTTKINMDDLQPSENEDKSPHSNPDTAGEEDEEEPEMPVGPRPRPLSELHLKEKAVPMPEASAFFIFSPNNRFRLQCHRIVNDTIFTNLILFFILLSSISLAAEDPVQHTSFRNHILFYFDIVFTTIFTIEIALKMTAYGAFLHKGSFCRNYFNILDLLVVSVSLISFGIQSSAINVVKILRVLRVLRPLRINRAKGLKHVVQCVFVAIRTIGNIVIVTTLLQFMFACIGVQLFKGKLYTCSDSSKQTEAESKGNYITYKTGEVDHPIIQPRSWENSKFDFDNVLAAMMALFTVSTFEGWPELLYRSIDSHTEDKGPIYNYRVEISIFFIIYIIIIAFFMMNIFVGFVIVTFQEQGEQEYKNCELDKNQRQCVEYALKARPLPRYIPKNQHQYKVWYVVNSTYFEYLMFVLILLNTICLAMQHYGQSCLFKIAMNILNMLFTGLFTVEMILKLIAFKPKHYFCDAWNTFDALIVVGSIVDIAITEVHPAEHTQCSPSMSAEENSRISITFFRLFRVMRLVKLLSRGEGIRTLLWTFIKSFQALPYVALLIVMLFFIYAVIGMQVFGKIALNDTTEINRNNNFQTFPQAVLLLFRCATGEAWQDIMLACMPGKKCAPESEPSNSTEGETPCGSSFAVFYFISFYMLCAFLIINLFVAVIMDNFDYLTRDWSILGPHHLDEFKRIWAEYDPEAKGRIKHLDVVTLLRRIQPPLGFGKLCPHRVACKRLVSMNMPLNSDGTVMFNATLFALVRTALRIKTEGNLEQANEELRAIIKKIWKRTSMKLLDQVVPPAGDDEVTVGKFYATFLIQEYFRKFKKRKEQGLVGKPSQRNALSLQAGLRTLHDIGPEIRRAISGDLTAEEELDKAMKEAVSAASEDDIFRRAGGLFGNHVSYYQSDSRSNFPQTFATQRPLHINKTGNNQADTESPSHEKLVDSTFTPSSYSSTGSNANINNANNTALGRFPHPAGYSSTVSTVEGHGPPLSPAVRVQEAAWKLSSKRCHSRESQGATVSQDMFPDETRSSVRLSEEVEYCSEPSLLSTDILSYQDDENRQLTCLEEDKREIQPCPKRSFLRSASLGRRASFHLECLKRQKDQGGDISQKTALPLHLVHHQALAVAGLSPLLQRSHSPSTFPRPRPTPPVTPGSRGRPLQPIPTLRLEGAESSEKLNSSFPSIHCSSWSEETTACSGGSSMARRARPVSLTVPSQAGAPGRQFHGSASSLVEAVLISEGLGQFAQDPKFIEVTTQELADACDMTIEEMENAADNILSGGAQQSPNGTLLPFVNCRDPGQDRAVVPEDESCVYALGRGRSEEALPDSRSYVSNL
Turning to `COC(=O)C1C(C)=NC(C)=C(C(=O)OCC(C)C)C1c1ccccc1[N+](=O)[O-]` (stereo not drawn) [CAS_4499], the inhibition constant (Ki) was 330 pM and 500 pM. `COCCOC(=O)C1=C(C)N=C(C)C(C(=O)OC(C)C)C1c1cccc([N+](=O)[O-])c1` (stereo not drawn) [Nimotop]: the Ki is 560 pM and 790 pM. The value for `COc1ccc(CCN(C)CCCC(C#N)(c2cc(OC)c(OC)c(OC)c2)C(C)C)cc1OC` (stereo not drawn) [GALLOPAMIL] was 42000 pM.
